Source: publication PMC6832219, “Synthesis of Novel Baicalein Amino Acid Derivatives and Biological Evaluation as Neuroprotective Agents” (Molecules, 2019)

Key:
injured SH-SY5Y cells [1] = test: Morphological detection of apoptosis using Giemsa staining; assay type: cell-based; conditions: 6.25, 12.5, 25 μM, 72 h
Method: SH-SY5Y cells in the logarithmic growth phase were seeded in 12-well plates (1.2 × 10^4 cells/well). After incubation for 24 h at 37 °C with 5% CO2, various concentrations ([…] concentrations) of compound 8 were added to the cultures, and the plate was incubated for a further 72 h. Then, we discarded the cell culture fluid, washed twice with phosphate-buffered saline (PBS), and fixed the cells with cold methanol. The SH-SY5Y cells were stained with 6% Giemsa solution for 5 min, washed with water, and dried. The cell morphological changes were observed under an inverted microscope.
Figure 2 Morphological detection of apoptosis using Giemsa staining (200×) on injured SH-SY5Y cells treated with compound 8: (a) control group, (b) injury group, (c) 6.25 μM, (d) 12.5 μM, and (e) 25 μM.

injured SH-SY5Y cells [2] = test: Morphological detection of apoptosis using DAPI staining; assay type: cell-based; conditions: 6.25, 12.5, and 25 μM, 72 h
Method: To further study the mechanism of growth inhibition of compound 8 on injured SH-SY5Y cells, DAPI staining was performed. Injured SH-SY5Y cells were treated with compound 8 at […] concentrations for 72 h. […] When the concentration of the drug increased, the shape of the cells became regular.
SH-SY5Y cells in logarithmic growth phase were seeded in 12-well plates (2.4 × 10^4 cells/well). After incubation for 24 h at 37 °C in a humidified atmosphere with 5% CO2, various concentrations of compound 8 was added to the cultures, and the plate was incubated for further 72 h. After discarding the cell culture medium, washing twice with PBS, and fixing with 4% paraformaldehyde for 10 min, 4′,6-diamidino-2-phenylindole (DAPI, 1 mg/mL, Molecular Probes/Invitrogen Life Technologies, Carlsbad, CA, USA), staining was performed for 5 min in the dark, and nuclear fragments were observed under fluorescence microscope.
Figure 3 Morphological detection of apoptosis using 4′,6-diamidino-2-phenylindole (DAPI) staining (200×) on injured SH-SY5Y cells treated with compound 8, (a) control group, (b) injury group, (c) 6.25 μM, (d) 12.5 μM, and (e) 25 μM.

## O=C(NC(Cc1ccccc1)C(=O)Oc1c(O)cc2oc(-c3ccccc3)cc(=O)c2c1O)OCc1ccccc1 (centres unmarked) [Compound 8, 5,7-dihydroxy-4-oxo-2-phenyl-4H-chromen-6-yl 2-{[(benzyloxy)carbonyl]amino}-3-phenyl-proppanpate]
Injured SH-SY5Y cells [1]
  Nuclear and cytoplasmic morphological changes (Giemsa staining): alleviating morphological manifestations of cell damage
Injured SH-SY5Y cells [2]
  Nuclear morphology / apoptosis (DAPI staining): protects injured SH-SY5Y cells from apoptosis
